These results are taken from ChEMBL document CHEMBL1131349, “4-[(1H-imidazol-4-yl) methyl] benzamidines and benzylamidines: novel antagonists of the histamine H3 receptor” (Bioorg Med Chem Lett, 1998).

The ED50 is the midpoint of the dose-response relation. The inhibition is the relative decrease from the control value, in per cent. Low values mean little suppression, high ones strong suppression. For orientation: Ki means a measure of affinity in units of concentration, obtained from inhibition or displacement. By Inhibition is commonly meant the relative decrease from the control value, in per cent.

Test [1] concerns Cavia porcellus. Briefly: In vivo antihistaminic (Histamine H3) activity was determined in guinea pig. Type of test: functional.
Test [2] has as its target Histamine H3 receptor (Cavia porcellus) (UniProt Q9JI35). Briefly: Compound was tested for inhibition of N-alpha-methylhistamine binding to histamine H3 receptor in guinea pig brain membranes. Type of test: cell membranes. Particulars: Membrane, concentration not given here.
Another test addresses Histamine H3 receptor (Cavia porcellus, UniProt Q9JI35). Briefly: Inhibition of N-alpha-methylhistamine binding to histamine H3 receptor of guinea pig brain membranes.
In test [3] the test system is Cavia porcellus. The experiment in a line: Percent inhibition of histamine H3 mediated antihistaminic activity in guinea pig was determined in vivo. Type of test: functional.

Chain of Histamine H3 receptor (Q9JI35 whole entry): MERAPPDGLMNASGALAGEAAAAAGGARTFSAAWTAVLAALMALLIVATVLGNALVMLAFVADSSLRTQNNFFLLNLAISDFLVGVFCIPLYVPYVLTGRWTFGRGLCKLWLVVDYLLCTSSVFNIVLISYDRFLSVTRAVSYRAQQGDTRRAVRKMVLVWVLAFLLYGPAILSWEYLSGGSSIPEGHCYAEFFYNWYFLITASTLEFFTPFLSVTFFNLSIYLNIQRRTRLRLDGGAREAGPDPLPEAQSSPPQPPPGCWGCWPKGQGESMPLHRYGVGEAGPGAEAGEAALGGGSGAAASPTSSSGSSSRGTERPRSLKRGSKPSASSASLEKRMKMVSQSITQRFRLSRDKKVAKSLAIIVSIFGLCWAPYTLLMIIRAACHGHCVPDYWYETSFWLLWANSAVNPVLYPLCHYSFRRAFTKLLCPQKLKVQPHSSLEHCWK
Chain of Histamine H3 receptor (Cavia porcellus) (Q9JI35 whole entry): as above

For the compound `N=C(Cc1ccc(Cc2c[nH]cn2)cc1)NCc1ccc(Cl)cc1`, in the test on Cavia porcellus [1], the ED50 was determined as 0.3 mg/kg.

In test [2], `N=C(N)c1ccc(-c2c[nH]cn2)cc1` returned an inhibition of 49%. For `N=C(CCc1ccc(Cc2cnc[nH]2)cc1)NCc1ccc(Cl)cc1`, the Ki on Histamine H3 receptor was 175 nM. The same measure, in the same setting: to `N=C(N)c1ccc(CCc2cnc[nH]2)cc1` belongs 165 nM. For `N=C(N)c1ccc(Cc2c[nH]cn2)cc1`, the Inhibition in the test with Cavia porcellus [3] is recorded as 33%. For `N=C(N)c1cccc(-c2c[nH]cn2)c1`, on Histamine H3 receptor, the Ki stood at 350 nM. With `S=C(NC1CCCCC1)N1CCC(c2cnc[nH]2)CC1` [THIOPERAMIDE], at Histamine H3 receptor, the inhibition constant Ki stood at 7.3 nM. Moreover, it took a dose of 0.4 mg/kg to reach the 50% effect level in the test with Cavia porcellus [1] (ED50).

For the compound `COc1ccc(C/N=C(\N)c2ccc(Cc3c[nH]cn3)cc2)cc1`, affinity at Histamine H3 receptor was put at a Ki of 513 nM. `N=C(NCc1ccc(Cl)cc1)c1ccc(Cc2c[nH]cn2)cc1` showed an inhibitory constant (Ki) on Histamine H3 receptor of 16 nM. Besides, the ED50 in the test on Cavia porcellus [1] was found to be 0.3 mg/kg. `N=C(N)CCCc1c[nH]cn1` registered a Ki on Histamine H3 receptor of 1.2 nM. With `N=C(NCc1ccncc1)c1ccc(Cc2c[nH]cn2)cc1`, the inhibition in test [2] was determined as 44%.
